Laboratory results reported in patent publication US8969383B2, “Picolinamide derivatives as TTX-S blockers” (RaQualia Pharma Inc., priority 2009, dated 2015).

How the values were obtained:
human Nav1.3 = target: T1, human Nav1.3 (Homo sapiens, UniProt Q9NY46); test: FRET assay, human Nav1.3 channels expressed in HEK293 cells; format: cell-based; settings: HEK293 cells expressing human NaV1.3, veratridine-opened channels
T1 construct: expressed in transfected cells; host or cells: HEK293
Description: (§1) The ability of the picolinamide derivatives of the formula (I) to inhibit the NaV1.3,Nav1.7 and Nav1.5 channels was measured by FRET assay and electrophysiology assay described below.
(§2) This screen is used to determine the effects of compounds on human Nav1.3, human Nav1.7, and human Nav1.5 channels, utilising the cell imaging technology by Hamamatsu Photonics's Functional Drug Screening System (FDSS). This experiment is based on FRET (Fluorescence Resonance Energy Transfer) and uses two fluorescent molecules. The first molecule, Oxonol (DiSBAC2(3)), is a highly fluorescent, negatively charged, hydrophobic ion that “senses” the trans-membrane electrical potential. In response to changes in membrane potential, it can rapidly redistribute between two binding sites on opposite sides of the plasma membrane. The voltage dependent redistribution is transduced into a ratiometric fluorescent readout via a second fluorescent molecule (Coumarin (CC2-DMPE)) that binds specifically to one face of the plasma membrane and functions as a FRET partner to the mobile voltage-sensing ion. To enable the assay to work, the channels have to be pharmacologically held in the open state. This is achieved by treating the cells with veratridine.
Each HEK293 cells expressing human NaV1.3 channels and HEK293 cells expressing human NaV1.5 channels were grown in T225 flasks, in a 5% CO2 humidified incubator to about 80% confluence. Media composition consisted of Dulbecco's Modified Eagle Medium (high glucose), 10% fetal calf serum (FCS), 100 units/ml Penicillin, 100 microgram/ml Streptomycin and 500 microgram/ml Geneticine.
(§3) • Seed each cell lines (1.5×10^4 cells/well) into poly-D-lysine coated 384-well plates prior to experimentation. • Incubate at 37° C. in 5% CO2 for 24 hours. • Wash each well with buffer #1 (140 mM NaCl, 4.5 mM KCl, 10 mM D-Glucose, 2 mM CaCl2, 1 mM MgCl2, 10 mM HEPES, pH 7.4 adjusted with NaOH) twice using plate washer. • Add 1st loading solution containing 5 μM CC2-DMPE and 0.02% Pluronic F-127 in buffer #1. • Incubate the plate at room temperature in dark for 0.5 hours. • Wash each well with buffer #2 (160 mM Choline, 10 mM D-Glucose, 0.1 mM CaCl2, 1 mM MgCl2, 10 mM HEPES, pH 7.4 adjusted with KOH) twice using plate washer. • Add 2nd loading solution containing 15 μM DiSBAC2(3), 0.5 mM VABSC-1, 10 μM veratridine and 0.004% Pluronic F-127 in buffer #2. • Add compound solutions into the assay plate and leave the plate for 30 minutes under the dark at room temperature. • Measure by FDSS.
(§4) The data was analyzed and reported as normalized ratios of intensities measured in the 465 nm and 575 nm channels. The process of calculating these ratios was performed as follows:
(§5) “FI465B”=the mean of fluorescence intensity as baseline (before Na+ ligand addition) at 465 nm
(§6) “FI575B”=the mean of fluorescence intensity as baseline (before Na+ ligand addition) at 575 nm
(§7) “FI465Max”=maximum fluorescence intensity at 465 nm after Na+ stimulation
(§8) “FI575 Min”=minimum fluorescence intensity at 575 nm after Na+ stimulation
(§9) This analysis was performed using a computerized specific program designed for FDSS generated data. Fluorescence ratio values were plotted using XLfit to determine an IC50 value for each compound.

human Nav1.7 = target: T2, human Nav1.7 (Homo sapiens, UniProt Q15858); test: FRET assay, human Nav1.7 channels expressed in CHO cells; format: cell-based; settings: CHO cells expressing human NaV1.7, veratridine-opened channels
T2 construct: expressed in transfected cells; host or cells: CHO
Description: as §1, §2
CHO cells expressing human NaV1.7 channels were grown in T225 flasks, in a 5% CO 2 humidified incubator to about 80% confluence. Media composition consisted of HAM/F12 with Glutamax 1.10% fetal calf serum (FCS), 100 units/ml Penicillin and 100 microgram/ml Hygromycin.
as §3, §4, §5, §6, §7, §8, §9

T2 sequence (Q15858 whole entry): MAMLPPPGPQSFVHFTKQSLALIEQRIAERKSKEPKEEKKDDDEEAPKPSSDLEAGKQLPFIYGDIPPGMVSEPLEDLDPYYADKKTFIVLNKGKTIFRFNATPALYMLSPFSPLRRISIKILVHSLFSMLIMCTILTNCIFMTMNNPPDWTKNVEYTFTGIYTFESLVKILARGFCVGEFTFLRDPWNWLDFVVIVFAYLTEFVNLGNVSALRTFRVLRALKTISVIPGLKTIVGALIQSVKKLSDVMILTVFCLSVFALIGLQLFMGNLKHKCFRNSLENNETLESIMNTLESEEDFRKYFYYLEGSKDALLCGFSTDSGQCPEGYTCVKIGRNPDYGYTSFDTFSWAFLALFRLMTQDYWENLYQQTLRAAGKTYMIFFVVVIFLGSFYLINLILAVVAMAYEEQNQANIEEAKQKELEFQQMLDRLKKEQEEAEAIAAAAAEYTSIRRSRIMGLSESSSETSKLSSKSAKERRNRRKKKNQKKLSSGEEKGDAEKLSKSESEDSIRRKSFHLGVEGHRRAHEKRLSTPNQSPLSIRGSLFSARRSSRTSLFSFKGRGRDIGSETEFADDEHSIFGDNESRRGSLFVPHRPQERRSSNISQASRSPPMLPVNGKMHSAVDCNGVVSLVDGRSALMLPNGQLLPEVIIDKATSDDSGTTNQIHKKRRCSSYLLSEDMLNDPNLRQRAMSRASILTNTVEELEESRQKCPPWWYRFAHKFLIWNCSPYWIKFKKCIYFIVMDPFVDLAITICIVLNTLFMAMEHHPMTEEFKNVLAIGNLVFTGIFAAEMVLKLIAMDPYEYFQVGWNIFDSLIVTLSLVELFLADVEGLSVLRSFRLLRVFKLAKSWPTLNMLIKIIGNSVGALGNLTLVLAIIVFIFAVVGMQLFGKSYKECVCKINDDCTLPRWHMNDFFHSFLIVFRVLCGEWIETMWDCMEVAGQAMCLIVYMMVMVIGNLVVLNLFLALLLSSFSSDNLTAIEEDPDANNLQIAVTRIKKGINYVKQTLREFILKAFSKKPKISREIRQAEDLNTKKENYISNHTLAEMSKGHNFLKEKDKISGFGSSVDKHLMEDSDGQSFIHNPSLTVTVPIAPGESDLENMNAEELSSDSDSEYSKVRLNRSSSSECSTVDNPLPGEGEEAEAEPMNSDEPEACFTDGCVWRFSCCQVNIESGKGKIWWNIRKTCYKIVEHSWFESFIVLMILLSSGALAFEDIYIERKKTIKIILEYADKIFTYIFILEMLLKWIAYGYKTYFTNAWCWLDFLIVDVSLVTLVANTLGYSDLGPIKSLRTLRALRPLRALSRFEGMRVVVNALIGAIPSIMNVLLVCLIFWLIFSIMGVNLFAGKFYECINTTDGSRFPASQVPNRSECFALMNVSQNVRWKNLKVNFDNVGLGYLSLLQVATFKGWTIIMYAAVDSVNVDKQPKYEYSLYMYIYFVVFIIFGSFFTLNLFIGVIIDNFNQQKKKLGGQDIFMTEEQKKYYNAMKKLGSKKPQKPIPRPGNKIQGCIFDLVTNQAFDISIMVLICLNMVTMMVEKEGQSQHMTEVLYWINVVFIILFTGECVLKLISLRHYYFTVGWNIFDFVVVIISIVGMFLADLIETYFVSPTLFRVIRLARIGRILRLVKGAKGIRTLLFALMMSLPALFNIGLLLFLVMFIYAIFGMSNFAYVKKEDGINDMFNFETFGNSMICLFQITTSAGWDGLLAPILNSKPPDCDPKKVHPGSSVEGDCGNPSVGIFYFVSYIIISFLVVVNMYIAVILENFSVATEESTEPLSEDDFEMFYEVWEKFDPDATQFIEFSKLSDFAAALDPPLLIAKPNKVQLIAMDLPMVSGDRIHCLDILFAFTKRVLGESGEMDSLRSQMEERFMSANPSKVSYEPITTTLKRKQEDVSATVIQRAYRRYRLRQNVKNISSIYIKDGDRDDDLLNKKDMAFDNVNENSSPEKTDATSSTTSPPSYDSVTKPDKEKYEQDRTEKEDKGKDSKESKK
T1 sequence (Q9NY46 whole entry): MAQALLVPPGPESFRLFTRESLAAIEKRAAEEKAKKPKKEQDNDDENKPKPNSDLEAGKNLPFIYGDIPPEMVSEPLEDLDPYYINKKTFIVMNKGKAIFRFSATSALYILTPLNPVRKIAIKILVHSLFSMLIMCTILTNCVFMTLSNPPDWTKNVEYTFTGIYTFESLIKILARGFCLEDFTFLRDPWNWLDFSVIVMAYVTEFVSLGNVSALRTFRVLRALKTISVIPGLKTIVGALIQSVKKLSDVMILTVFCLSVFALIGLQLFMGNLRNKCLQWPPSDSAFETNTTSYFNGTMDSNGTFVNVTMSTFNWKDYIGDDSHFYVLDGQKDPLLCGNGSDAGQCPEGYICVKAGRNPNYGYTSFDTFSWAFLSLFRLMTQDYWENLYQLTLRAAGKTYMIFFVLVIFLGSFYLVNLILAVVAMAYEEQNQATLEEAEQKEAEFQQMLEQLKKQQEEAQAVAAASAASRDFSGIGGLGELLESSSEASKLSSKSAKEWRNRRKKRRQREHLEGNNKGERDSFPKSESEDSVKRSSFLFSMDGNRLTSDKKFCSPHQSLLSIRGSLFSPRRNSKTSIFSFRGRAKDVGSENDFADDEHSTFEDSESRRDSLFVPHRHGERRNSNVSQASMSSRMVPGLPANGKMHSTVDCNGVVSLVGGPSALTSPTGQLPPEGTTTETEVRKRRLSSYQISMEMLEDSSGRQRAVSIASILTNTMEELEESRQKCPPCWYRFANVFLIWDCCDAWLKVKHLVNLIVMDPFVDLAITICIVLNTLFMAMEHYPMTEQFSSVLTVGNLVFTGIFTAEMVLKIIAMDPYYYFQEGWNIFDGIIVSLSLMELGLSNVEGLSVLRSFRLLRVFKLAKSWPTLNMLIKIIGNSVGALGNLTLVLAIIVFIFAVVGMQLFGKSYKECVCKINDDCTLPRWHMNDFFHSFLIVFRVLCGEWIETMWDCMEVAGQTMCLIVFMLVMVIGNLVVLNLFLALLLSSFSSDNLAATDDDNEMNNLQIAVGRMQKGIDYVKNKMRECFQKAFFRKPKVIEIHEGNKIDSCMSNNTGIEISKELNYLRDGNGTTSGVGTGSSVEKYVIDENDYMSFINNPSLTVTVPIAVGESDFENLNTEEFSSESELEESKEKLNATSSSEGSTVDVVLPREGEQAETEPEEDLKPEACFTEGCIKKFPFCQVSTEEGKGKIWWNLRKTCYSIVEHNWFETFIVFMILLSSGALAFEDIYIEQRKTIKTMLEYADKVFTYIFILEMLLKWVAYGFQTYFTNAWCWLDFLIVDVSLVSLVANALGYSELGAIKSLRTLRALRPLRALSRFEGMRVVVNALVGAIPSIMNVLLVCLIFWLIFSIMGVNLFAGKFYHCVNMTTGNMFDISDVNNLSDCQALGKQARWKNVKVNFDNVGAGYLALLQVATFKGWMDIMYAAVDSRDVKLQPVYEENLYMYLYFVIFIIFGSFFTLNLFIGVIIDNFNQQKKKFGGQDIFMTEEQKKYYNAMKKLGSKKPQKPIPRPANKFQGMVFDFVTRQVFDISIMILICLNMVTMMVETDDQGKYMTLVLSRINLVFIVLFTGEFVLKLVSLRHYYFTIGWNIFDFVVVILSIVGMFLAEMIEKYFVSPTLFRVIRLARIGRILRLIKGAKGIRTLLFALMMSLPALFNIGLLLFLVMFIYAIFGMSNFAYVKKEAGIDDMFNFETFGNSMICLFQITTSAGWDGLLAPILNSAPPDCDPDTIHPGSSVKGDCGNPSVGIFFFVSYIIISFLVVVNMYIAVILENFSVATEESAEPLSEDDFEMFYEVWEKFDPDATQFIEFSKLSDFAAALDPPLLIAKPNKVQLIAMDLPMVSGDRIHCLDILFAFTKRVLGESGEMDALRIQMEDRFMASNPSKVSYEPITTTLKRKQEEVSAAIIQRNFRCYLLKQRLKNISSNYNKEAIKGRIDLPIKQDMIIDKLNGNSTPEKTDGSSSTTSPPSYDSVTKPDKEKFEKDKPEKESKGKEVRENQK

Structure (SMILES)	IC50 (human Nav1.3) [nM]	IC50 (human Nav1.7) [nM]
O=C(NCC1(O)CCCCC1)c1ncccc1OC[C@H]1CCCN1C(=O)[C@H]1CC[C@H](C(F)(F)F)CC1 [Example 39, N-((1-hydroxycyclohexyl)methyl)-3-(((R)-1-(trans-4-(trifluoromethyl)cyclohexanecarbonyl)pyrrolidin-2-yl)methoxy)picolinamide]	≤ 500	≤ 500
O=C(NCc1ccccn1)c1ncccc1OC[C@H]1CCCN1C(=O)[C@H]1CC[C@H](C(F)(F)F)CC1 [Example 40, N-(pyridin-2-ylmethyl)-3-(((R)-1-(trans-4-(trifluoromethyl)cyclohexanecarbonyl)pyrrolidin-2-yl)methoxy)picolinamide]	≤ 500	≤ 500
COC(=O)CNC(=O)c1ncccc1OC[C@H]1CCCN1C(=O)[C@H]1CC[C@H](C(F)(F)F)CC1 [Example 35, methyl 2-(3-(((R)-1-(trans-4-(trifluoromethyl)cyclohexanecarbonyl)pyrrolidin-2-yl)methoxy)picolinamido)acetate]	≤ 500	≤ 500
O=C(Nc1ccon1)c1ncccc1OC[C@H]1CCCN1C(=O)c1cc(C2CC2)on1 [Example 65]	≤ 500	≤ 500
NC(=O)c1ncccc1OC[C@H]1CCCN1C(=O)c1ccc(C(F)(F)F)cc1 [Example 5, (R)-3-((1-(4-(trifluoromethyl)benzoyl)pyrrolidin-2-yl)methoxy) picolinamide]	≤ 500	≤ 500
COc1cnc(C(N)=O)c(OC[C@H]2CCCN2C(=O)[C@H]2CC[C@H](C(F)(F)F)CC2)c1 [Example 31, 5-methoxy-3-(((R)-1-(trans-4-(trifluoromethyl)cyclohexanecarbonyl)pyrrolidin-2-yl)methoxy)picolinamide]	≤ 500	≤ 500
NC(=O)c1ncc(Cl)cc1OC[C@H]1CCCN1C(=O)[C@H]1CC[C@H](C(F)(F)F)CC1 [Example 30, 5-chloro-3-(((R)-1-(trans-4-(trifluoromethyl)cyclohexanecarbonyl)pyrrolidin-2-yl)methoxy)picolinamide]	≤ 500	≤ 500
NC(=O)c1ncccc1OC[C@H]1CCCN1C(=O)c1ccc(OCC(F)(F)F)cc1 [Example 21, (R)-3-((1-(4-(2,2,2-trifluoroethoxy)benzoyl)pyrrolidin-2-yl)methoxy)picolinamide]	≤ 500	≤ 500
NC(=O)c1ncccc1OC[C@H]1CCCN1C(=O)COc1ccc(C(F)(F)F)cc1 [Example 18, (R)-3-((1-(2-(4-(trifluoromethyl)phenoxy)acetyl)pyrrolidin-2-yl)methoxy)picolinamide]	≤ 500	≤ 500
O=C(N[C@H](CO)c1ccccc1)c1ncccc1OC[C@H]1CCCN1C(=O)[C@H]1CC[C@H](C(F)(F)F)CC1 [Example 43, N-((S)-2-hydroxy-1-phenylethyl)-3-(((R)-1-(trans-4-(trifluoromethyl)cyclohexanecarbonyl)pyrrolidin-2-yl)methoxy) picolinamide]	≤ 500	≤ 500
O=C(NCc1ccccc1)c1ncccc1OC[C@H]1CCCN1C(=O)[C@H]1CC[C@H](C(F)(F)F)CC1 [Example 41, N-benzyl-3-(((R)-1-(trans-4-(trifluoromethyl)cyclohexanecarbonyl)pyrrolidin-2-yl)methoxy) picolinamide]	≤ 500	≤ 500
NC(=O)c1ncccc1OC[C@@H]1CCCN1C(=O)[C@H]1CC[C@@H](C(F)(F)F)CC1 [Example 2, 3-(((S)-1-(cis-4-(trifluoromethyl)cyclohexanecarbonyl)pyrrolidin-2-yl)methoxy)picolinamide]	≤ 500	≤ 500
COCCNC(=O)c1ncccc1OC[C@H]1CCCN1C(=O)[C@H]1CC[C@H](C(F)(F)F)CC1 [Example 37, N-(2-methoxyethyl)-3-(((R)-1-(trans-4-(trifluoromethyl)cyclohexanecarbonyl)pyrrolidin-2-yl)methoxy)picolinamide]	≤ 500	≤ 500
O=C(Nc1ncco1)c1ncccc1OC[C@@H]1CCCN1C(=O)[C@H]1CC[C@@H](C(F)(F)F)CC1 [Example 62, N-(oxazol-2-yl)-3-(((S)-1-(cis-4-(trifluoromethyl)cyclohexanecarbonyl)pyrrolidin-2-yl)methoxy)picolinamide]	≤ 500	≤ 500
NC(=O)c1ncc(Cl)cc1OC[C@H]1CCCN1C(=O)[C@H]1CC[C@@H](C(F)(F)F)CC1 [Example 29, 5-chloro-3-(((R)-1-(cis-4-(trifluoromethyl)cyclohexanecarbonyl)pyrrolidin-2-yl)methoxy)picolinamide]	≤ 500	≤ 500
O=C(Nc1ncco1)c1ncccc1OC[C@H]1CCCN1C(=O)[C@H]1CC[C@@H](C(F)(F)F)CC1 [Example 63, N-(oxazol-2-yl)-3-(((R)-1-(cis-4-(trifluoromethyl)cyclohexanecarbonyl)pyrrolidin-2-yl)methoxy)picolinamide]	≤ 500	≤ 500
O=C(Nc1ccon1)c1ncccc1OC[C@H]1CCCN1C(=O)CC1CCC(F)(F)CC1 [Example 66, (R)-3-((1-(2-(4,4-difluorocyclohexyl)acetyl)pyrrolidin-2-yl)methoxy)-N-(isoxazol-3-yl)picolinamide]	≤ 500	≤ 500
O=C(Nc1ccon1)c1ncccc1OC[C@H]1CCCN1C(=O)[C@H]1CC[C@H](C(F)(F)F)CC1 [Example 54, N-(isoxazol-3-yl)-3-(((R)-1-(trans-4-(trifluoromethyl)cyclohexanecarbonyl)pyrrolidin-2-yl)methoxy)picolinamide]	≤ 500	≤ 500
O=C(NCCO)c1ncccc1OC[C@H]1CCCN1C(=O)c1cccc(C(F)(F)F)c1 [Example 69, (R)-N-(2-hydroxyethyl)-3-((1-(3-(trifluoromethyl)benzoyl)pyrrolidin-2-yl)methoxy) picolinamide]	≤ 500	≤ 500
O=C(NCCN1CCOCC1)c1ncccc1OC[C@H]1CCCN1C(=O)c1cccc(C(F)(F)F)c1 [Example 68, (R)-N-(2-morpholinoethyl)-3-((1-(3-(trifluoromethyl)benzoyl)pyrrolidin-2-yl)methoxy) picolinamide]	≤ 500	≤ 500
O=C(NC1CCOCC1)c1ncccc1OC[C@H]1CCCN1C(=O)[C@H]1CC[C@H](C(F)(F)F)CC1 [Example 49, N-(tetrahydro-2H-pyran-4-yl)-3-(((R)-1-(trans-4-(trifluoromethyl)cyclohexanecarbonyl)pyrrolidin-2-yl)methoxy) picolinamide]	≤ 500	≤ 500
NC(=O)c1ncccc1OC[C@H]1CCCN1C(=O)c1ccc(OC(F)(F)F)cc1 [Example 25, (R)-3-((1-(4-(trifluoromethoxy)benzoyl)pyrrolidin-2-yl)methoxy) picolinamide]	≤ 500	≤ 500
O=C(Nc1ncns1)c1ncccc1OC[C@H]1CCCN1C(=O)[C@H]1CC[C@H](C(F)(F)F)CC1 [Example 47, N-(1,2,4-thiadiazol-5-yl)-3-(((R)-1-(trans-4-(trifluoromethyl)cyclohexanecarbonyl)pyrrolidin-2-yl)methoxy) picolinamide]	≤ 500	≤ 500
CC(C)(C)c1cc(C(=O)N2CCC[C@@H]2COc2cccnc2C(N)=O)no1 [Example 17, (R)-3-((1-(5-tert-butylisoxazole-3-carbonyl)pyrrolidin-2-yl)methoxy)picolinamide]	≤ 500	≤ 500
